Here are results for nine compounds from patent US20240293558A1, “KRAS INHIBITOR CONJUGATES” (Erasca, Inc., priority 2021, published 2024).

In one test the target is T1, KRAS (WT) (Homo sapiens, UniProt P01116).
T1 construct: Biotinylated KRAS protein amino acids 1-169 (produced at Erasca); made in house
Kind of test: In-vitro RAS-RAF binding assay (RRB), HTRF/FRET. It is filed as biochemical. As to conditions: Table 2, average of multiple runs of each compound; read-out: Inhibition of RAS-RAF Binding (in-vitro) KRAS (WT) IC50. The procedure: (§1) Biotinylated KRAS protein amino acids 1-169 (produced at […]) is labeled with streptavidin-terbium (lanthanide cryptate donor fluorophore) in assay buffer (50 mM HEPES, pH 7.5, 100 mM NaCl, 1 mM MgCl2, 1 mM DTT) at a final concentration of 30 nM. In a separate reaction mixture, 30 nM cRAF (RBD) (Abcam, Cambridge MA) is labeled with anti-GST d2 (acceptor fluorophore). Labeling reactions are incubated for 1 hour at room temperature. […] Following the compound incubation, SOS1 catalytic domain (produced at […]) and GTPgS are added to the reaction to initiate nucleotide exchange (60 minutes exchange reaction). Once in the GTP state KRAS will bind to cRAF. No binding will occur if KRAS remains in the GDP state. Compounds may block nucleotide exchange or may create a steric obstruction to cRAF-KRAS interaction by binding to the RAS effector site. […] A portion of this mixture is transferred to a white 384-well plate (20 uL per well in duplicate) and read on an HTRF compatible plate reader (ClarioSTAR). Fluorescent resonance energy transfer (FRET) is measured at equilibrium. FRET signal will be high if KRAS-cRAF binding occurs. FRET signal will be low if KRAS-cRAF binding is inhibited by the test compound. Table 2 represents the average of multiple runs of each compound.

Another test deals with KRAS G12D (Homo sapiens, UniProt P01116, G12D). Kind of test: In-vitro RAS-RAF binding assay (RRB), HTRF/FRET. It is filed as biochemical. Also on record: Biotinylated KRAS protein amino acids 1-169 (produced at Erasca); made in house. To be noted: Table 2, average of multiple runs of each compound; read-out: Inhibition of RAS-RAF Binding (in-vitro) KRAS (G12D) IC50. The method, then:
as §1
A general note: Time-resolved FRET reads energy transfer from a long-lived donor to a nearby acceptor.

T1 sequence (P01116 1-169 isoform P01116-2): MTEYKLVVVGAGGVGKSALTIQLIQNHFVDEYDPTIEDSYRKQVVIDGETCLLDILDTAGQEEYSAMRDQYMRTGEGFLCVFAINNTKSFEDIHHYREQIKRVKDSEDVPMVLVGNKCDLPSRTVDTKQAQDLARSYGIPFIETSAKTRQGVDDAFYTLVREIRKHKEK
Chain of KRAS G12D (P01116 1-169 isoform P01116-2 G12D): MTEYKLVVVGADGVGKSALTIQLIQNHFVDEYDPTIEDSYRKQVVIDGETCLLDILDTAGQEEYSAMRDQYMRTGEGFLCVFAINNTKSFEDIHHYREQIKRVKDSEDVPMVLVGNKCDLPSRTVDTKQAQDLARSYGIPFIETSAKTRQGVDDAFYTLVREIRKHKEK

By IC50 is commonly meant the concentration needed to halve the response being measured. For the compound `C#Cc1c(F)ccc2cc(O)cc(-c3ncc4c(N5CC6CCC(C5)N6)nc(OC[C@@H]5CCCN5CCCOCCC(=O)N[C@H](C(=O)N5C[C@H](O)C[C@H]5C(=O)N[C@@H](C)c5ccc(-c6ccncc6C#N)cc5)C(C)(C)C)nc4c3F)c12` [Example 28, (2S,4R)-1-((2S)-2-(3-(3-((2S)-2-(((4-(3,8-diazabicyclo[3.2.1]octan-3-yl)-7-(8-ethynyl-7-fluoro-3-hydroxynaphthalen-1-yl)-8-fluoropyrido[4,3-d]pyrimidin-2-yl)oxy)methyl)pyrrolidin-1-yl)propoxy)propanamido)-3,3-dimethylbutanoyl)-N—((S)-1-(4-(3-cyanopyridin-4-yl)phenyl)ethyl)-4-hydroxypyrrolidine-2-carboxamide], the IC50 at KRAS (WT) came out at 24.2 nM; at KRAS G12D, 7.93 nM.

Consider `Cc1ncsc1-c1ccc([C@H](C)NC(=O)[C@@H]2C[C@@H](O)CN2C(=O)[C@@H](NC(=O)CCCCN2CCC[C@H]2COc2nc(N3CC4CCC(C3)N4)c3cnc(-c4cc(O)cc5cccc(F)c45)c(F)c3n2)C(C)(C)C)cc1` [Example 82, (2S,4R)-1-((2S)-2-(5-((2S)-2-(((4-(3,8-diazabicyclo[3.2.1]octan-3-yl)-8-fluoro-7-(8-fluoro-3-hydroxynaphthalen-1-yl)pyrido[4,3-d]pyrimidin-2-yl)oxy)methyl)pyrrolidin-1-yl)pentanamido)-3,3-dimethylbutanoyl)-4-hydroxy-N-((S)-1-(4-(4-methylthiazol-5-yl)phenyl)ethyl)pyrrolidine-2-carboxamide], for which the IC50 was 304 nM on KRAS (WT) and 8.52 nM at KRAS G12D.

For `C#Cc1c(F)ccc2cc(O)cc(-c3ncc4c(N5CC6CCC(C5)N6)nc(OC[C@@H]5CCCN5CCCOCCC(=O)N[C@H](C(=O)N5C[C@H](O)C[C@H]5C(=O)N[C@@H](C)c5ccc(-c6c(F)cncc6F)cc5)C(C)(C)C)nc4c3F)c12` [Example 27, (2S,4R)-1-((2S)-2-(3-(3-((2S)-2-(((4-(3,8-diazabicyclo[3.2.1]octan-3-yl)-7-(8-ethynyl-7-fluoro-3-hydroxynaphthalen-1-yl)-8-fluoropyrido[4,3-d]pyrimidin-2-yl)oxy)methyl)pyrrolidin-1-yl)propoxy)propanamido)-3,3-dimethylbutanoyl)-N—((S)-1-(4-(3,5-difluoropyridin-4-yl)phenyl)ethyl)-4-hydroxypyrrolidine-2-carboxamide], the IC50 on KRAS (WT) is 37.9 nM; on KRAS G12D it was 10.8 nM.

With `C#Cc1c(F)ccc2cc(O)cc(-c3ncc4c(N5CC6CCC(C5)N6)nc(OC[C@@H]5CCCN5CCCOCCC(=O)N[C@H](C(=O)N5C[C@H](O)C[C@H]5C(=O)N[C@@H](C)c5ccc(-c6c(F)c(F)cc(F)c6F)cc5)C(C)(C)C)nc4c3F)c12` [Example 54, (2S,4R)-1-((2S)-2-(3-(3-((2S)-2-(((4-(3,8-diazabicyclo[3.2.1]octan-3-yl)-7-(8-ethynyl-7-fluoro-3-hydroxynaphthalen-1-yl)-8-fluoropyrido[4,3-d]pyrimidin-2-yl)oxy)methyl)pyrrolidin-1-yl)propoxy)propanamido)-3,3-dimethylbutanoyl)-4-hydroxy-N-((S)-1-(2′,3′,5′,6′-tetrafluoro-[1,1′-biphenyl]-4-yl)ethyl)pyrrolidine-2-carboxamide], the half-maximal inhibitory concentration (IC50) on KRAS (WT) was 52.9 nM; at KRAS G12D, 9.65 nM.

As for `C#Cc1c(F)ccc2cc(O)cc(-c3ncc4c(N5CC6CCC(C5)N6)nc(OC[C@@H]5CCCN5CCCOCCC(=O)N[C@H](C(=O)N5C[C@H](O)C[C@H]5C(=O)N[C@@H](C)c5ccc(-c6c(F)cccc6Cl)cc5)C(C)(C)C)nc4c3F)c12` [Example 42, (2S,4R)-1-((2S)-2-(3-(3-((2S)-2-(((4-(3,8-diazabicyclo[3.2.1]octan-3-yl)-7-(8-ethynyl-7-fluoro-3-hydroxynaphthalen-1-yl)-8-fluoropyrido[4,3-d]pyrimidin-2-yl)oxy)methyl)pyrrolidin-1-yl)propoxy)propanamido)-3,3-dimethylbutanoyl)-N-((S)-1-(2′-chloro-6′-fluoro-[1,1′-biphenyl]-4-yl)ethyl)-4-hydroxypyrrolidine-2-carboxamide], the half-maximal inhibitory concentration (IC50) at KRAS (WT) was determined as 24.9 nM; on KRAS G12D it was 7.78 nM.

Consider `C#Cc1c(F)ccc2cc(O)cc(-c3ncc4c(N5CC6CCC(C5)N6)nc(OCCN5CCC6(CC5)CN(c5cc([C@H](C(=O)N7C[C@H](O)C[C@H]7C(=O)N[C@@H](C)c7ccc(-c8c(F)cc(F)cc8F)cc7)C(C)C)on5)C6)nc4c3F)c12` [Example 36, (2S,4R)-1-((2R)-2-(3-(7-(2-((4-(3,8-diazabicyclo[3.2.1]octan-3-yl)-7-(8-ethynyl-7-fluoro-3-hydroxynaphthalen-1-yl)-8-fluoropyrido[4,3-d]pyrimidin-2-yl)oxy)ethyl)-2,7-diazaspiro[3.5]nonan-2-yl)isoxazol-5-yl)-3-methylbutanoyl)-4-hydroxy-N—((S)-1-(2′,4′,6′-trifluoro-[1,1′-biphenyl]-4-yl)ethyl)pyrrolidine-2-carboxamide], for which the 50% inhibitory concentration (IC50) came out at 1070 nM at KRAS (WT) and 9.85 nM on KRAS G12D.

`C#Cc1c(F)ccc2cc(O)cc(-c3ncc4c(N5CC6CCC(C5)N6)nc(OC[C@@H]5CCCN5CCCOCCC(=O)N[C@H](C(=O)N5C[C@H](O)C[C@H]5C(=O)N[C@@H](C)c5ccc(-c6c(Cl)ccc(Cl)c6Cl)cc5)C(C)(C)C)nc4c3F)c12` [Example 57, (2S,4R)-1-((2S)-2-(3-(3-((2S)-2-(((4-(3,8-diazabicyclo[3.2.1]octan-3-yl)-7-(8-ethynyl-7-fluoro-3-hydroxynaphthalen-1-yl)-8-fluoropyrido[4,3-d]pyrimidin-2-yl)oxy)methyl)pyrrolidin-1-yl)propoxy)propanamido)-3,3-dimethylbutanoyl)-4-hydroxy-N-((S)-1-(2′,3′,6′-trichloro-[1,1′-biphenyl]-4-yl)ethyl)pyrrolidine-2-carboxamide]: the IC50 on KRAS (WT) came to 118 nM; on KRAS G12D, 13.1 nM.

As to `Cc1ncsc1-c1ccc([C@H](C)NC(=O)[C@@H]2C[C@@H](O)CN2C(=O)[C@@H](NC(=O)CCCCN2CCC[C@H]2COc2nc(N3CC4CCC(C3)N4)c3cc(Cl)c(-c4ccc(F)c5sc(N)c(C#N)c45)c(F)c3n2)C(C)(C)C)cc1` [Example 84, (2S,4R)-1-((2S)-2-(5-((2S)-2-(((7-(2-amino-3-cyano-7-fluorobenzo[b]thiophen-4-yl)-4-(3,8-diazabicyclo[3.2.1]octan-3-yl)-6-chloro-8-fluoroquinazolin-2-yl)oxy)methyl)pyrrolidin-1-yl)pentanamido)-3,3-dimethylbutanoyl)-4-hydroxy-N-((S)-1-(4-(4-methylthiazol-5-yl)phenyl)ethyl)pyrrolidine-2-carboxamide], the values for the IC50 on KRAS (WT) and at KRAS G12D were 69 nM and 12.8 nM, respectively.

In the case of `C#Cc1c(F)ccc2cc(O)cc(-c3ncc4c(N5CC6CCC(C5)N6)nc(OC[C@@H]5CCCN5CCCOCCC(=O)N[C@H](C(=O)N5C[C@H](O)C[C@H]5C(=O)N[C@@H](C)c5ccc(-c6c(C)cccc6C)cc5)C(C)(C)C)nc4c3F)c12` [Example 41, (2S,4R)-1-((2S)-2-(3-(3-((2S)-2-(((4-(3,8-diazabicyclo[3.2.1]octan-3-yl)-7-(8-ethynyl-7-fluoro-3-hydroxynaphthalen-1-yl)-8-fluoropyrido[4,3-d]pyrimidin-2-yl)oxy)methyl)pyrrolidin-1-yl)propoxy)propanamido)-3,3-dimethylbutanoyl)-N-((S)-1-(2′,6′-dimethyl-[1,1′-biphenyl]-4-yl)ethyl)-4-hydroxypyrrolidine-2-carboxamide], the IC50 at KRAS (WT) was 53.4 nM; at KRAS G12D it was 9.4 nM.
